Earlier results, collected in patent US10981928B2, “Methods of making low odor choline salts of an organic compound” (HALO LIFE SCIENCE, LLC, priority 2016, dated 2021).
Values after ≈ are worked out from the molar mass of the structure shown.

Experiments:
[1] = comparison value
[2] = PEG 400 at 37° C.; comparison value

O=c1oc2c(O)c(O)cc3c(=O)oc4c(O)c(O)cc1c4c23 [ellagic acid]
solubility in water [1]: ~4 µg/mL (≈ 0.0132 mM)
solubility in PEG 400 [2]: 8000 µg/mL (≈ 26.5 mM)
